These results are taken from the OligoGym collection.

In the series the target is HSD17B13. As to conditions: ASO, HepaRG.

After the bases stand the sugars from the 5' end (letter, count) and the backbone: PS all phosphorothioate, else s phosphorothioate and o phosphodiester by linkage. Methylation of C is not given here. e = 2'-O-(2-methoxyethyl) (MOE); k = constrained ethyl (cEt); d = 2'-deoxy (DNA); m = 2'-O-methyl

As to ACAGTCTTAAACCTTC (sugars k3 d10 k3, PS), the target mRNA inhibition runs as follows: (0.02 µM) 5%; (0.078 µM) 16%; (0.313 µM) 52%; (1 µM) 76%; (1.25 µM) 75%; (5 µM) 80%.

The sequence “ACAGTCTTAAACCTTC (sugars kkdddddddddkekek, PS)” came in with a target mRNA inhibition (1 µM) of 46%. For the sequence “ACAGUCTTAAACCTTC (sugars k3 d1 m1 d8 k3, PS)”, the target mRNA inhibition reads like this: (0.02 µM) 19%; (0.078 µM) 35%; (0.313 µM) 41%; (1 µM) 81%; (1.25 µM) 67%; (5 µM) 85%. ACATAACTACTTCAGT (sugars k3 d10 k3, PS) registered a target mRNA inhibition (1 µM) of 28%. As to ACATAGCTAACTCAGG (sugars k3 d10 k3, PS), for the setting “1 µM”, the target mRNA inhibition stood at 38%. For ACATATACAGACTAAG (sugars k3 d10 k3, PS), where the note is “1 µM”, the target mRNA inhibition stood at 46%.

The sequence ACATATGGTGTACACT (sugars k3 d10 k3, PS) registered a target mRNA inhibition (1 µM) of 19%. On to “ACATCTCTGGGACCAA (sugars kkdddddddddkekek, PS)”, for which the target mRNA inhibition (1 µM) was 67%. Regarding ACATTCTTCAGGTGTT (sugars k3 d10 k3, PS), the target mRNA inhibition (0.02 µM) is 0%; the target mRNA inhibition (0.078 µM) was 20%; the target mRNA inhibition (0.313 µM) worked out at 48%; the target mRNA inhibition (1 µM) is 88%; the target mRNA inhibition (1.25 µM) is 80%; the target mRNA inhibition (5 µM) is 90%. Sequence ACATTGCAGTTATTAG (sugars k3 d10 k3, PS) had a target mRNA inhibition (1 µM) of 42%. Take “ACATUAGCAAGCTAAG (sugars k3 d1 m1 d8 k3, PS)”: the target mRNA inhibition (1 µM) was found to be 23%. Still for that read-out and setting: with “ACCAAACTTCCAGCAG (sugars k3 d1 m1 d8 k3, PS)” the figure was 54%; with ACCAAACTTGCCCATA (sugars k3 d10 k3, PS), 46%; with ACCAACTATGTAATAG (sugars k3 d10 k3, PS), 47%. Under “1 µM”, ACCAATATGGGATGAG (sugars k3 d10 k3, PS) displayed a target mRNA inhibition of 24%. With ACCAATGCAGTTTGTA (sugars k3 d10 k3, PS), the target mRNA inhibition is, setting by setting: (0.02 µM) 6%; (0.078 µM) 0%; (0.313 µM) 32%; (1 µM) 75%; (1.25 µM) 80%; (5 µM) 90%. Turning to ACCACATACGCATGCG (sugars k3 d10 k3, PS), the target mRNA inhibition (1 µM) stood at 45%. Consider ACCACGATTGTTACAT (sugars k3 d10 k3, PS), for which the target mRNA inhibition (1 µM) was 34%. With ACCAGAATCCATTCTA (sugars k3 d10 k3, PS), the target mRNA inhibition (1 µM) worked out at 60%. Sequence ACCATAGGACATGGAG (sugars k3 d10 k3, PS) registered a target mRNA inhibition (1 µM) of 62%. Under “1 µM”, ACCCAGTATTCACAAA (sugars k3 d10 k3, PS) had a target mRNA inhibition of 10%. The sequence ACCGTTTTGGGCTAAT (sugars k3 d10 k3, PS) showed a target mRNA inhibition (0.02 µM) of 0%; a target mRNA inhibition (0.078 µM) of 0%; a target mRNA inhibition (0.313 µM) of 45%; a target mRNA inhibition (1 µM) of 78%; a target mRNA inhibition (1.25 µM) of 81%; a target mRNA inhibition (5 µM) of 95%.

With ACCTTACCTTGTGCTT (sugars k3 d10 k3, PS), the target mRNA inhibition (1 µM) amounted to 0%. ACGATTGTTACATCAC (sugars k3 d10 k3, PS): under “1 µM”, the target mRNA inhibition was 53%. Turning to ACGCCTAGTTTTCGGC (sugars k3 d10 k3, PS), the target mRNA inhibition (1 µM) is 7%. ACGGTGATCAAATGTA (sugars k3 d10 k3, PS) had a target mRNA inhibition (1 µM) of 53%. “ACGGTGATCAAATGTA (sugars kkdddddddddkekek, PS)” displayed a target mRNA inhibition (1 µM) of 33%. For “ACTAATATTGAGGCAC (sugars k3 d1 m1 d8 k3, PS)”, the target mRNA inhibition (1 µM) turned out to be 42%. With ACTAATTTAGTCAACT (sugars k3 d10 k3, PS), the target mRNA inhibition (1 µM) was 18%. For the setting “1 µM”, ACTACAAGAGGTTATT (sugars k3 d10 k3, PS) yielded a target mRNA inhibition of 46%.

For the sequence ACTACATGACCTGGGT (sugars k3 d10 k3, PS), where the note is “1 µM”, the target mRNA inhibition was found to be 54%. In turn, ACTACATTAACACCAA (sugars k3 d10 k3, PS) registered a target mRNA inhibition (1 µM) of 46%. The sequence ACTACTTCAGTTAGCA (sugars k3 d10 k3, PS) showed a target mRNA inhibition (1 µM) of 79%. Still for that read-out and setting: for ACTAGAACTCCCAACC (sugars k3 d10 k3, PS) the value was 20%. In turn, ACTCCGTTATAAGTTT (sugars k3 d10 k3, PS) yielded a target mRNA inhibition (1 µM) of 42%.

Take ACTCTAAATACCCTTG (sugars k3 d10 k3, PS): the target mRNA inhibition (1 µM) was 16%.

As for ACTCTATTGATTGGCT (sugars k3 d10 k3, PS), the target mRNA inhibition (1 µM) was 57%.

Turning to ACTGACAACCCTTAAC (sugars k3 d10 k3, PS), the target mRNA inhibition (1 µM) worked out at 10%. Where the note is “1 µM”, “ACTGCTGCTAGTGCCA (sugars k3 d9 k3 e1, PS)” registered a target mRNA inhibition of 57%. Under “1 µM”, ACTGTATTAAGACAGT (sugars k3 d10 k3, PS) came in with a target mRNA inhibition of 20%.

ACTTCAGAGTTATACA (sugars k3 d10 k3, PS) came in with a target mRNA inhibition (1 µM) of 35%. On the same count and under the same terms, for ACTTCTTACGACTTCA (sugars k3 d10 k3, PS) the value was 43%; for “ACTTGATCTCTTAGCT (sugars k3 d9 k3 e1, PS)”, 59%. In the case of ACTTTCATAGGGAGAC (sugars k3 d10 k3, PS), the target mRNA inhibition reads like this: (0.02 µM) 0%; (0.078 µM) 8%; (0.313 µM) 25%; (1 µM) 80%; (1.25 µM) 69%; (5 µM) 83%. In the case of ACTTTTAGGGAGGTAG (sugars k3 d10 k3, PS), the target mRNA inhibition (1 µM) came out at 20%. As for ACTTTTCCGTCTCACA (sugars k3 d10 k3, PS), the target mRNA inhibition worked out at 0% (0.02 µM); 19% (0.078 µM); 61% (0.313 µM); 89% (1 µM); 88% (1.25 µM); 84% (5 µM). AGAAATCTAAGAACCC (sugars k3 d10 k3, PS) showed a target mRNA inhibition (1 µM) of 25%. The sequence AGAACCAATATGCTCT (sugars k3 d10 k3, PS) came in with a target mRNA inhibition (1 µM) of 38%. Still for that read-out and setting: for AGAACCAGGACTCTCC (sugars k3 d10 k3, PS) the value was 67%; for AGAAGTATGTGAACTC (sugars k3 d10 k3, PS), 41%. For the sequence “AGAATAGAGTTGCACC (sugars k3 d9 k3 e1, PS)”, the target mRNA inhibition (1 µM) came to 58%.

The sequence AGAATAGAGTTGCACC (sugars k3 d10 k3, PS) gave a target mRNA inhibition (1 µM) of 70%. In the case of AGACAATTAACATTCG (sugars k3 d10 k3, PS), under “1 µM”, the target mRNA inhibition was determined as 62%.

For AGACAGTTGAGTAGTG (sugars k3 d10 k3, PS), the target mRNA inhibition (1 µM) worked out at 63%.
